The values that follow come from PubChem BioAssay AID1996.

≈ marks a conversion by molar mass, not a printed value.

The kinetic solubility is the concentration staying in solution when a stock, usually in DMSO, is diluted into the medium.

For this series the following is noted: buffer; pH 7.4; 200.0 µM.
On to `COc1cccc(NC(=O)CN(C)CC(=O)Nc2ccc3c(c2)OCO3)c1`, for which the solubility (kinetic) was > 55.7 µg/mL.
The molecule `O=C(OCc1ccccc1F)c1cnc(Cl)c(Cl)c1` yielded a kinetic solubility of 1.6 µg/mL (≈ 5.33 µM).
To `Cc1ccccc1-c1noc(CCC(=O)NCc2ccco2)n1` belongs 42.1 µg/mL (≈ 135 µM).
For `Cc1ccc(NC(=O)c2cc(C)no2)cc1` the value was 26.2 µg/mL (≈ 121 µM); for `CC(C)(C)c1ccc(NC(=O)NC2CCCc3ccccc32)cc1` (stereo unspecified), < 0.3 µg/mL; for `CC(Oc1cccc(Cl)c1)C(=O)NCc1ccc(S(N)(=O)=O)cc1` (stereo unspecified), 53.3 µg/mL (≈ 145 µM).
In turn, `CSc1nsc(NC(=O)Nc2ccccc2)n1` yielded a kinetic solubility of 21.2 µg/mL (≈ 79.6 µM).
Regarding `COc1cc(OC)cc(C(=O)NCCCn2ccnc2)c1`, the kinetic solubility was > 43.4 µg/mL.
For `Cc1ccc(C(=O)NCC(c2ccc(F)cc2)N2CCOCC2)cc1` (stereo unspecified) the value was 44.4 µg/mL (≈ 130 µM).
For `CNS(=O)(=O)c1cccc(C(=O)OCC(=O)c2ccc3[nH]c(=O)[nH]c3c2)c1` the value was > 58.4 µg/mL; for `COc1ccccc1CCC(=O)OCC(=O)Nc1ccc2[nH]c(=O)[nH]c2c1`, 30.5 µg/mL (≈ 82.6 µM).
`CC(C)C(NC(=O)c1ccc(Cl)cc1Cl)C(=O)N1CCN(S(=O)(=O)c2ccccc2)CC1` (stereo unspecified) returned a kinetic solubility of 2 µg/mL (≈ 4.01 µM).
For the molecule `CC(=O)Nc1ccc(C(=O)CN2C(=O)NC3(CCCCCC3)C2=O)c(F)c1`, the kinetic solubility came out at 33.9 µg/mL (≈ 90.3 µM).
For `O=C(CSc1ncccn1)Nc1ccc2[nH]c(=O)[nH]c2c1` the value was > 45.2 µg/mL.
To `CC(=O)Nc1ccccc1C(=O)C(=O)NCCc1ccccc1` belongs 40.5 µg/mL (≈ 130 µM); to `O=C(Cc1cccs1)NCCc1csc(-c2ccccc2)n1`, > 49.3 µg/mL.
`COc1ccccc1CCC(=O)OCC(=O)NCc1ccc(OC)c(OC)c1`: the solubility (kinetic) is > 58.1 µg/mL.
For `COc1ccc(NC(=O)c2cccc(Oc3ccccc3)c2)cn1`, the solubility (kinetic) came out at 8.8 µg/mL (≈ 27.5 µM).
Regarding `Cc1nc(Cl)c2c(n1)NC(=O)CO2`, the kinetic solubility was > 29.9 µg/mL.
For `CCC(=O)NN1CCN(c2ccncc2S(=O)(=O)N2CCCCC2)CC1` the value was > 57.2 µg/mL; for `O=C(NN1CCOCC1)c1cccc(Cl)c1`, > 36.1 µg/mL; for `COc1cc2c(cc1OC)/C(=C/C(=O)c1ccc(C)cc1)NCC2`, 24.8 µg/mL (≈ 76.7 µM).
To `CN(CC(=O)Nc1ccc(F)cc1[N+](=O)[O-])C1CCS(=O)(=O)C1` (stereo unspecified) belongs > 51.8 µg/mL.
For `O=C(NN1C(=O)NC2(CCCCC2)C1=O)c1cc(F)cc(F)c1` the value was > 48.5 µg/mL; for `N#CC(C#N)=Cc1cccnc1`, 19.5 µg/mL (≈ 126 µM); for `Cc1ccccc1OCC(=O)OCC(=O)NCc1ccco1`, > 45.5 µg/mL.
In the case of `C/C(=N/NC(=O)CNC(=O)c1cccs1)c1ccco1`, the kinetic solubility is > 43.7 µg/mL.
Molecule `C=CCN=C1S/C(=C\c2ccc(Cl)cc2)C(=O)N1CC=C` came in with a solubility (kinetic) of 2 µg/mL (≈ 6.27 µM).
Molecule `CC(OC(=O)C1CCCCC1)C(=O)Nc1cccc(Cl)c1` (stereo unspecified) had a solubility (kinetic) of 22.3 µg/mL (≈ 72 µM).
As to `C[C@H](NS(=O)(=O)c1ccc(Cl)cc1)C(=O)OCC(=O)N1CCOCC1`, the solubility (kinetic) turned out to be 55.9 µg/mL (≈ 143 µM).
To `O=C(CSc1ncnc2ccccc12)NCc1ccc2c(c1)OCO2` belongs 10.1 µg/mL (≈ 28.6 µM); to `Cc1ccc(NC(=O)/C=C2\NC(=O)CS2)cc1`, 4.1 µg/mL (≈ 16.5 µM); to `O=C(N/N=C/c1cccnc1)c1cc(C2CC2)nc2ccccc12`, > 47.5 µg/mL.
To `CCOC(=O)CN(C(=O)c1ccccc1[N+](=O)[O-])C(C)(C)C` belongs 43.7 µg/mL (≈ 142 µM); to `COc1ccc(CNC(=O)Cn2cncn2)cc1OC`, > 41.4 µg/mL; to `Cc1cccnc1NC(=S)NCc1ccco1`, 31.4 µg/mL (≈ 127 µM).
To `C=CCN(Cc1ccc(OC)c(OC)c1)C(=O)N1CCOCC1` belongs > 48.1 µg/mL.
As to `Cc1cccc(NC(=S)NCc2ccc(F)cc2)c1C`, the kinetic solubility worked out at 35.2 µg/mL (≈ 122 µM).
To `NC(=O)c1ccccc1NS(=O)(=O)c1ccc(F)cc1` belongs > 44.1 µg/mL; to `NS(=O)(=O)c1cc2c(cc1C(F)(F)F)NC(Cc1ccccc1)NS2(=O)=O` (stereo unspecified), > 63.2 µg/mL; to `Cc1ccc(C(=O)NC(=S)N2CCN(C)CC2)cc1Br`, 47.4 µg/mL (≈ 133 µM).
For `Cc1ccc(N(Cc2cc(=O)[nH]c3ccccc23)C(=O)C(C)C)c(C)c1` the value was 17.7 µg/mL (≈ 50.8 µM); for `COc1cccc(-c2cc(-c3cccnc3)c(C#N)c(N)n2)c1`, 0.7 µg/mL (≈ 2.32 µM).
For `C=C(C)c1ccccc1NC(=O)CCN1C(=O)c2ccccc2S1(=O)=O` the value was > 55.6 µg/mL; for `O=C(NC1CCCc2ccccc21)c1cn2ccccc2n1` (stereo unspecified), 39.7 µg/mL (≈ 136 µM); for `COc1ccc(CCC(=O)OCC(=O)Nc2sccc2C#N)cc1`, 22.9 µg/mL (≈ 66.5 µM).
On to `NS(=O)(=O)c1ccc(CCNC(=O)c2ccncc2)cc1`, for which the solubility (kinetic) is > 45.8 µg/mL.
To `Cc1ccc2nc(C(F)C(F)(F)F)[nH]c2c1` (stereo unspecified) belongs > 34.8 µg/mL; to `O=C1CC(Sc2ncccc2C(=O)O)C(=O)N1` (stereo unspecified), > 37.8 µg/mL; to `CC(C(=O)c1c[nH]c2ccccc12)N1CCN(C(=O)c2ccco2)CC1` (stereo unspecified), > 52.7 µg/mL.
`CCCCOc1ccc(C(=O)N2CCNC(=O)C2)cc1`: the kinetic solubility is > 41.5 µg/mL.
